Data published in PubChem BioAssay AID2060363 (Molecular Pharmacology Branch, DTP, NCI, 2025).
pIC50: −log10 of the molar value. “And” between values parts separate entries of the source, which are not always exact repeats. Identical values can stand only once.

Test system: 156681-154-R-J1-PDC tumor spheroids, viability % test/control
Test: Anticancer human tumor 156681-154-R-J1-PDC patient-derived melanoma cell line growth inhibition [TAK]
Settings: spheroids with HUVEC and MSC; for viability, T/C: stronger effect = lower value; for pIC50: curve of compound
Source text: Combinatorial screen of targeted agents with TAK-243 and ipatasertib in multi-cell type tumor spheroids
A high-throughput screen of multi-cell type tumor spheroids was designed to identify active combinations of targeted small molecules and TAK-243 or ipatasertib. Complex spheroids include a stromal component modeled by human endothelial cells (HUVEC) and fibroblasts modeled by human mesenchymal stem cells (MSCs). The concentration ranges selected for each drug and investigational agent were based upon clinically achievable concentrations if the clinical Cmax of the agent was known.
Compounds. The drugs and investigational agents: TAK-243 (785004), ipatasertib (767898), everolimus (733504), selumetinib (741078), bortezomib (756655), trametinib (758246), ixazomib (758254), vemurafenib (761431), dabrafenib (764134), sapanisertib (764658), alpelisib (765974), and copanlisib (816437), were obtained from the National Cancer Institute (NCI) Developmental Therapeutics Program Chemical Repository. The FDA-approved anticancer drug set is available from the NCI Developmental Therapeutics Program. […] The stock solutions were prepared in dimethyl sulfoxide (DMSO, Sigma-Aldrich, St. Louis, MO, cat. D2650) at 800-fold the tested concentration and stored at -70 degrees C prior to their use. All drugs and investigational agents were tested over a range starting from a high concentration at or near the clinical Cmax and decreasing in half-log increments. If the clinical Cmax for an agent had not been determined, the highest concentration tested was 10 microM.
NCI60 Cell Culture. NCI60 cell lines were obtained from the NCI Developmental Therapeutics Program Tumor Repository. For each lot of cells, the Repository performed Applied Biosystems AmpFLSTR Identifiler testing with PCR amplification to confirm consistency with the published Identifier STR profile for each cell line. Cells were kept in continuous culture for no more than 20 passages. The optimal seeding densities for each of the cell lines at each time point assessed were determined prior to performing the concentration response studies. Briefly, the NCI60 human tumor lines were grown as monolayers in RPMI 1640 medium supplemented with 10% FBS and 2 mmol/L L-glutamine.
An additional 2 lines were from the NCI60 cell line panel including melanomas, MALME-3M and SK-MEL-2. Pooled donor human umbilical vein endothelial cells (HUVEC, Lonza, cat. CC-2519) and human mesenchymal stem cells (hMSC, Lonza, cat. PT-2501) were purchased from Lonza (Walkersville, MD).
PDMR cell lines were grown in complete medium (DC medium): Dulbecco's modified Eagle's medium (DMEM)/F12 supplemented with 5% fetal bovine serum (FBS), 2 mM L-glutamine, 100 U/mL penicillin and 100 µg/ml streptomycin, 0.4 µg/ml hydrocortisone, 10 ng/ml epidermal growth factor (EGF) recombinant human protein, 24 µg/mL adenine, and 0.1 mg/mL primocin. During culture from frozen stock vials, PDMR cells were cultured in the same medium containing 10 µM Y-27632 (see Table 3). The PDCs were cultured in complete DMEM/F12 media without 10 microM Y-27632 dihydrochloride for at least two passages prior to the screen. The pooled donor HUVEC and hMSC were cultured in endothelial cell growth medium 2 (PromoCell, Heidelberg, Germany, cat. C-22011) and mesenchymal stem cell growth medium 2 (PromoCell, cat. C-28009), respectively. For all experiments, HUVEC and hMSC were used at passages </=5.
For the pre-screen, cell seeding densities were determined from a titration spanning the range from 5,000 to 313 cells per well. The mct-spheroids including 60% malignant cells, 25% HUVEC and 15% MSC dispensed as a mixture into U-bottom Ultra-Low Attachment 384-well plates (Corning, NY)
High-throughput Drug Combination Screening.
Prior to their inoculation into 384-well plates, malignant cells, HUVEC, and hMSC were removed from T flasks using TrypLE express (Thermo Fisher Scientific, cat. 12605036) and harvested by centrifugation for 5 min at 233 x g. […]
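Also: spheroids exposed to compounds for 7 days before the endpoint.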

SMILES | pIC50 | viability, T/C (compound 0.0316 µM) | viability, T/C (compound 0.1 µM) | viability, T/C (compound 0.316 µM) | viability, T/C (compound 1 µM) | viability, T/C (compound 0.000316 µM) | viability, T/C (compound 0.001 µM) | viability, T/C (compound 0.00316 µM) | viability, T/C (compound 0.01 µM) | also measured
CC(=O)Nc1cccc(-n2c(=O)n(C3CC3)c(=O)c3c(Nc4ccc(I)cc4F)n(C)c(=O)c(C)c32)c1 | 8.28 and 8.36 | – | – | – | – | – | – | – | – | viability, T/C (compound 94.9 pM): 102% and 101%; viability, T/C (compound 0.0003 µM): 105% and 111%; viability, T/C (compound 0.000949 µM): 100% and 102%; viability, T/C (compound 0.003 µM): 83.8% and 66.8%; viability, T/C (compound 0.00949 µM): 15.5% and 14.8%; viability, T/C (compound 0.03 µM): 8.87% and 8.9%
CC(C)(C)c1nc(-c2cccc(NS(=O)(=O)c3c(F)cccc3F)c2F)c(-c2ccnc(N)n2)s1 | 6.58 and 6.61 | 106% and 91.4% | 95.8% and 92.3% | 41.5% and 37.8% | 17.2% and 17.8% | – | – | – | – | viability, T/C (compound 3.16 µM): 14.4% and 14.5%; viability, T/C (compound 10 µM): 18%
CC(C)CC(NC(=O)C(Cc1ccccc1)NC(=O)c1cnccn1)B(O)O (stereo not given) | 8.59 and 8.69 | – | – | – | – | 98.8% and 103% | 94.7% and 103% | 39.8% and 19.6% | 0.36% and 0.32% | viability, T/C (compound 31.6 pM): 91.3% and 98.6%; viability, T/C (compound 0.0001 µM): 90.4% and 95.9%
CC(C)CC(NC(=O)CNC(=O)c1cc(Cl)ccc1Cl)B1OC(=O)CC(CC(=O)O)(C(=O)O)O1 (stereo not given) | 7.71 and 7.75 | 18.1% and 10.3% | 0.44% and 0.46% | – | – | 104% and 94.9% | 101% and 104% | 99.5% and 101% | 95.7% and 90.9% | –
CC(C)NCC(C(=O)N1CCN(c2ncnc3c2C(C)CC3O)CC1)c1ccc(Cl)cc1 (stereo not given) | – | – | – | – | – | – | – | – | – | viability, T/C (compound 0.3 µM): 99.2% [middle of 10 runs]; viability, T/C (compound 0.949 µM): 91.1% [middle of 10 runs]; viability, T/C (compound 3 µM): 70.3% [middle of 10 runs]; viability, T/C (compound 9.49 µM): 41.4% [middle of 10 runs]; viability, T/C (compound 30 µM): 19.1% [middle of 10 runs]; IC50 (compound alone, run of 02/20/2020): 6.66 µM [middle of 10 runs]
CCCS(=O)(=O)Nc1ccc(F)c(C(=O)c2c[nH]c3ncc(-c4ccc(Cl)cc4)cc23)c1F | – | – | – | 115% and 97.9% | 107% and 92.3% | – | – | – | – | viability, T/C (compound 3.16 µM): 106% and 99.3%; viability, T/C (compound 10 µM): 12.5% and 20.2%; viability, T/C (compound 31.6 µM): 103% and 16.7%; viability, T/C (compound 100 µM): 83.9% and 100%
COC1CC2CCC(C)C(O)(O2)C(=O)C(=O)N2CCCCC2C(=O)OC(C(C)CC2CCC(OCCO)C(OC)C2)CC(=O)C(C)C=C(C)C(O)C(OC)C(=O)C(C)CC(C)C=CC=CC=C1C (stereo not given) | 7.03 and < 7.00 | 62.3% and 59.9% | 46% and 51.8% | – | – | 98.5% and 87% | 81.8% and 87.3% | 70% and 71.2% | 59.4% and 64.1% | –
Cc1nc(NC(=O)N2CCCC2C(N)=O)sc1-c1ccnc(C(C)(C)C(F)(F)F)c1 (stereo not given) | < 5.00 | 97.2% and 99.7% | 94.9% and 98.4% | 86.1% and 86.6% | 86.8% and 74.4% | – | – | – | – | viability, T/C (compound 3.16 µM): 67.9% and 64.5%; viability, T/C (compound 10 µM): 52.8% and 56.2%

Continued, in another order:

pIC50 | SMILES | viability, T/C (compound 0.0316 µM) | viability, T/C (compound 0.1 µM) | viability, T/C (compound 0.316 µM) | viability, T/C (compound 1 µM) | viability, T/C (compound 0.000316 µM) | viability, T/C (compound 0.001 µM) | viability, T/C (compound 0.00316 µM) | viability, T/C (compound 0.01 µM) | also measured
7.47 and 7.36 | CC(C)n1nc(-c2ccc3oc(N)nc3c2)c2c(N)ncnc21 | 48% and 56.1% | 33.3% and 34.1% | – | – | 97.2% and 94.8% | 95.3% and 91.7% | 81.4% and 96.3% | 80.2% and 86.3% | –
7.17 | COc1c(OCCCN2CCOCC2)ccc2c3n(c(=NC(=O)c4cnc(N)nc4)nc12)CCN3 | 67.9% and 77.9% | 41.9% and 35.2% | 13.5% and 10.8% | 2.91% and 1.78% | – | – | 101% and 102% | 91.1% and 89.1% | –
6.11 and 6.16 | Cn1cnc2c(F)c(Nc3ccc(Br)cc3Cl)c(C(=O)NOCCO)cc21 | – | – | – | – | – | – | – | – | viability, T/C (compound 0.00949 µM): 95.4% and 99.5%; viability, T/C (compound 0.03 µM): 92.4% and 89.7%; viability, T/C (compound 0.0949 µM): 97.8% and 89.7%; viability, T/C (compound 0.3 µM): 93.4% and 95.4%; viability, T/C (compound 0.949 µM): 41.3% and 32.8%; viability, T/C (compound 3 µM): 13% and 12.3%
